Measurements published in US20240366644A1, “ANTI-INFLAMMATORY APPLICATION OF GINSENOSIDE RD” (priority 2022, published 2024).

Tested on: COVID-19 Delta virus-infected mice
Test: IL-1β and MCP-1 expression (RT-qPCR) in lung homogenates of COVID-19 Delta virus-infected mice
Format: in vivo, hACE2 transgenic C57BL/6 mice
Conditions: 20 mg/kg administration group

In the case of CC(C)=CCC[C@](C)(O[C@@H]1O[C@H](CO)[C@@H](O)[C@H](O)[C@H]1O)[C@H]1CC[C@]2(C)[C@@H]1[C@H](O)C[C@@H]1[C@@]3(C)CC[C@H](O[C@@H]4O[C@H](CO)[C@@H](O)[C@H](O)[C@H]4O[C@@H]4O[C@H](CO)[C@@H](O)[C@H](O)[C@H]4O)C(C)(C)[C@@H]3CC[C@]12C [Ginsenoside Rd, ginsenoside Rd], the “ability to inhibit the overexpression of inflammatory mediators compared with Dexamethasone” value is reported as “considerable to that of Dexamethasone”.
